≈ marks a conversion by molar mass, not a printed value. Where “and” joins values, the source holds several entries; their conditions need not be identical. Equal values may be shown once. Marks after values point to notes of the source that are not given here.
Tests used:
[1] = Thermodynamic solubility assay (shake flask, HPLC-UV) in PBS; assay type: physicochemical; settings: for solubility thermodynamic at 24 h: 25 °C, aqueous buffer, thermodynamic from solid
Procedure: Solubility Study: The thermodynamic solubility assay employed was the shake flask method followed by HPLC analysis. The method prepared a saturated solution of the compound, followed by an assay of the solution using HPLC and UV detection. […] About 18 mg compound powder was weighed and placed in a 2 mL glass vial, then PBS buffer was introduced into the vial to obtain a 30-60 mg/mL target concentration. This solution was vortexed for 2 minutes. The solutions were incubated and shook on an orbital shaker for 24 hr at room temperature (25±2° C.). About 500 μL solubility solution was transferred into a new MultiScreen filter plate (Membrane of polycarbonate), filtered by millipore vacuum manifold, and collected in the filtrate as the TS solution. The filtrate was diluted with PBS buffer by a factor of 20 fold to make it diluent. Three UV standard solutions (20, 200, 2000 μg/mL) were injected into HPLC from low to high concentration, followed by testing of the diluent. Testing samples were injected in duplicate. The filtrate was analyzed by HPLC equipped with UV, and the solubility was calculated based on acquired peak areas and dilution factors with a standard external method.

[2] = test system: kidney ischemia-reperfusion injury; experiment: Rat bilateral short-warm kidney ischemia-reperfusion injury (IRI / AKI) system; assay type: in vivo, Male outbred Sprague-Dawley rats; settings: oral 103 mg/kg
Procedure: Brief description of AKI Study: The study examined rats given oral compound Q8 three times at −1 hour, +10 hours, and 24 h post-lesion, or nine times over four days, at −1 hr, +10 hours and every morning and evening. The dose chosen was 103 mg/kg (0.134 mmol/kg). Control groups include a sham operation group receiving drug vehicle, peritoneum open but no ligature application to the kidney artery. A vehicle group in which the artery ligature was applied served as the lesion group. […] This chosen amount is also between the IC95 and the IC50 inhibition of Jnk activity in cell extracts and human PBMCs (Krenitsky et al. Bioorganic & Medicinal Chemistry Letters, 22(3), pp. 1433-1438). It is also similar to the oral Cavg exposure of compound Z at 60 mg/kg, which is an effective dose of compound Z in rat models of AKI (Grynberg et al. Am J Pathol 191:817-828, 2021).
Rat bilateral short-warm kidney ischemia-reperfusion injury (“IRI”) system: Male outbred Sprague-Dawley rats (approximately 300 g from the Monash Animal Research Platform), six/group, were anesthetized using ketamine/xylazine, and surgery performed with both renal pedicles clamped for 25 minutes (ischemia) then released (reperfusion) as previously described (Grynberg et al. Am J Pathol 191:817-828, 2021). […]
Staining used rabbit monoclonal antibodies recognizing collagen I (E8F4L, 1 in 400 dilutions; Cell Signaling Technology, Danvers, MA, USA), followed by biotinylated […] (BA-400, 1 in 500 dilutions; Thermo Fisher, Waltham, MA, USA), and the VECTASTAIN® Elite® ABC-HRP Kit (PK-6100). The interstitial collagen I deposition area was assessed in the outer medulla and cortex by image analysis, avoiding medium and large arteries, using cellSens software V1.18 (Olympus, Notting Hill, Victoria, Australia) as previously described (Leong et al. Toxins 13:700, 2021). […]
Statistical Analysis: Data are shown as means±1 SD. Data were analyzed by one-way analysis of variance with the Tukey multiple comparison tests using GraphPad Prism 9.0 software (GraphPad Software, San Diego, CA).

[3] = In vivo rat pharmacokinetic studies (cleavage of compounds into compound Z); settings: for Compound Z Present in Plasma at 2 hr After i.p. dose: i.p. dose of compound Qx
Procedure: Rat pharmacokinetic study samples were used for PK characterization. Male Sprague-Dawley rats weighing 150-300 g were intraperitoneal (ip), intravenous (i.v.) dosed formulated in PBS, pH 7.4. The blood samples at several times post dosing were collected and advanced to plasma preparation with K2EDTA as an anticoagulant.
The blank plasma samples used for the PK characterization control were prepared from undosed rat groups. After IV administration, the amount of parent compound remaining at 0.5 hours after dosing was used as a measure of the cleavage rate. After IP administration, the amount of parent compound remaining at 2 hours after dosing was used as a measure of the cleavage rate. We sought compounds with >90% cleavage.

[4] = test system: kidney ischemia-reperfusion injury; settings: oral; Grynberg et al.; cited from earlier work
cJun phosphorylation = settings: human skin; cited from earlier work
[5] = PBS buffer, PBS pH 7.4, shaken 24 hr at room temperature (25±2° C.)
[6] = PBS pH 7.4, shaken 24 hr at room temperature (25±2° C.)
[7] = studied at 1 mg/kg in PBS, linearly scaled to 2 mg/kg equivalent dose

**Q.** Which results are given for O=P([O-])([O-])OCn1/c(=N\c2c(F)cc(F)cc2F)n([C@H]2CCOC2)c2nc(NC3CCC(O)CC3)ncc21.[Na+].[Na+] (stereo partly drawn) [Compound Q8, [[(8Z)-2-[(4-hydroxycyclohexyl)amino]-9-[(3S)-tetrahydrofuran-3-yl]-8-(2,4,6-trifluorophenyl)imino-purin-7-yl]methoxy-sodiooxy-phosphoryl]oxysodium]?
**A.** improvement in solubility over known compound Z ([1]; PBS): 751 fold; solubility thermodynamic at 24 h [1, 5]: 45600 µg/mL; reduction of fibrosis component Coll histological staining ([2]; D21 post-lesion): 73%; reduction of tubular damage ([2]; Day 7 post-lesion, PAS stained sections, outer medulla): 65%; reduction of serum/plasma creatinine levels (kidney dysfunction) ([2]; three doses or nine doses over four days, vs. 1D vehicle): 87-88%; Compound Qx Present in Plasma at 2 hr After i.p. dose ([3]; studied at 29.8 mg/kg in PBS, linearly scaled to 2 mg/kg equivalent dose): 12^# ng/mL; concentration at 0.5 h ([3]; male, Sprague-Dawley, plasma, intravenous, 1 mg/kg): 21 ng/mL

**Q.** Which solubility thermodynamic at 24 h [1, 6] does the source give for O=P([O-])([O-])OP(=O)([O-])OC1CCC(Nc2ncc3nc(Nc4c(F)cc(F)cc4F)n([C@H]4CCOC4)c3n2)CC1.[Na+].[Na+].[Na+] (stereo partly drawn) [Compound Q9, [Disodiooxyphosphoryloxy-[4-[[9-[(3S)-tetrahydrofuran-3-yl]-8-(2,4,6-trifluoroanilino)purin-2-yl]amino]cyclohexoxy]phosphoryl]oxysodium] here?
**A.** Its solubility thermodynamic at 24 h is 19400 µg/mL.

**Q.** And the “Compound Qx Present in Plasma at 2 hr After i.p. dose” value ([3]; studied at 2 mg/kg in PBS)?
**A.** Its value is “BQL”.

**Q.** What about the “Compound Qx Present in Plasma at 0.5 hr After i.v. dose” value [3, 7] of the same compound?
**A.** The value was “BQL”.

**Q.** Which solubility thermodynamic at 24 h [1, 5] does the source give for CC(=O)O[C@H]1CC[C@H](Nc2ncc3nc(Nc4c(F)cc(F)cc4F)n([C@H]4CCOC4)c3n2)CC1 [Compound Q10, [4-[[9-[(3S)-Tetrahydrofuran-3-yl]-8-(2,4,6-trifluoroanilino)purin-2-yl]amino]cyclohexyl] acetate] here?
**A.** Its solubility thermodynamic at 24 h is 75.2 µg/mL.

**Q.** With CCOC(=O)n1/c(=N\c2c(F)cc(F)cc2F)n([C@H]2CCOC2)c2nc(N[C@H]3CC[C@H](O)CC3)ncc21 [Compound Q11] as the compound, how does the solubility thermodynamic at 24 h [1, 5] read?
**A.** Its solubility thermodynamic at 24 h is under 20 µg/mL.

**Q.** Which solubility thermodynamic at 24 h [1, 5] does the source give for C[N+](C)(C)CCOC(=O)O[C@H]1CC[C@H](Nc2ncc3nc(Nc4c(F)cc(F)cc4F)n([C@H]4CCOC4)c3n2)CC1 [Compound Q12, trimethyl-[2-[4-[[9-[(3S)-tetrahydrofuran-3-yl]-8-(2,4,6-trifluoroanilino)purin-2-yl]amino]cyclohexoxy]carbonyloxyethyl]ammonium] here?
**A.** Its solubility thermodynamic at 24 h is 29600 µg/mL.

**Q.** What about the concentration at 2 h ([3]; male, Sprague-Dawley, plasma, ip, 2 mg/kg) of the same compound?
**A.** The concentration at 2 h was 214 ng/mL.

**Q.** With CCOC(=O)OC1CCC(Nc2ncc3nc(Nc4c(F)cc(F)cc4F)n([C@H]4CCOC4)c3n2)CC1 (stereo partly drawn) [Compound Q13, Ethyl [4-[[9-[(3S)-tetrahydrofuran-3-yl]-8-(2,4,6-trifluoroanilino)purin-2-yl]amino]cyclohexyl] carbonate] as the compound, how does the solubility thermodynamic at 24 h [1, 5] read?
**A.** Its solubility thermodynamic at 24 h is under 20 µg/mL.

**Q.** For CN(C)C(=O)O[C@H]1CC[C@H](Nc2ncc3nc(Nc4c(F)cc(F)cc4F)n([C@H]4CCOC4)c3n2)CC1 [Compound Q14, [4-[[9-[(3S)-tetrahydrofuran-3-yl]-8-(2,4,6-trifluoroanilino)purin-2-yl]amino]cyclohexyl] N,N-dimethylcarbamate], which solubility thermodynamic at 24 h [1, 5] is on record?
**A.** Its solubility thermodynamic at 24 h is under 20 µg/mL.

**Q.** With CC(=O)OCn1/c(=N\c2c(F)cc(F)cc2F)n([C@H]2CCOC2)c2nc(N[C@H]3CC[C@H](O)CC3)ncc21 [Compound Q16, [(8Z)-2-[(4-hydroxycyclohexyl)amino]-9-[(3S)-tetrahydrofuran-3-yl]-8-(2,4,6-trifluorophenyl)imino-purin-7-yl]methyl acetate] as the compound, how does the solubility thermodynamic at 24 h [1, 5] read?
**A.** The solubility thermodynamic at 24 h was 114 µg/mL.

**Q.** Which results are given for O[C@H]1CC[C@H](Nc2ncc3nc(Nc4c(F)cc(F)cc4F)n([C@H]4CCOC4)c3n2)CC1 [Z, 4-[[9-[(3S)-tetrahydrofuran-3-yl]-8-(2,4,6-trifluoroanilino)purin-2-yl]amino]cyclohexanol]?
**A.** solubility thermodynamic at 24 h [1, 5]: 60.6 µg/mL (≈ 135 µM); effective dose in rat models of AKI [4]: 60 mg/kg; plasma concentration that achieved efficacy (suppression of cJun phosphorylation) (cJun phosphorylation): 3.4 uM and 1560 ng/mL

**Q.** For “Trimethyl-[2-oxo-2-[4-[[9-[(3S)-tetrahydrofuran-3-yl]-8-(2,4,6-trifluoroanilino)purin-2-yl]amino]cyclohexoxy]ethyl]ammonium [Compound Q15]”, which “Thermodynamic Solubility in PBS” value [1, 6] is on record?
**A.** The value was 17340 µg/mL.

**Q.** And the “Compound Z Present in Plasma at 2 hr After i.p. dose” value ([3]; studied at 2 mg/kg in PBS)?
**A.** Its value is 26.5 ng/mL.

**Q.** And the “Compound Qx Present in Plasma at 2 hr After i.p. dose” value ([3]; studied at 2 mg/kg in PBS)?
**A.** The value was 125 ng/mL.

**Q.** With “[4-[[9-[(3S)-Tetrahydro furan-3-yl]-8-(2,4,6-trifluoroanilino)purin-2-yl]amino]cyclohexyl] disodium phosphate [Compound Q7]” as the compound, how does the “compound still present at 2 hrs post-dosing” value ([3]; 2 hr post-dosing) read?
**A.** Its value is 30%.

**Q.** And the “Compound Z Present in Plasma at 2 hr After i.p. dose” value ([3]; studied at 2 mg/kg in PBS)?
**A.** Its value is 83.5 ng/mL.

**Q.** What about the “Compound Qx Present in Plasma at 2 hr After i.p. dose” value ([3]; studied at 2 mg/kg in PBS) of the same compound?
**A.** The value was 36 ng/mL.

**Q.** And the “Compound Z Present in Plasma at 0.5 hr After i.v. dose” value ([3]; i.v. dose of compound Qx, studied at 1 mg/kg in PBS, linearly scaled to 2 mg/kg equivalent dose)?
**A.** The value was 232 ng/mL.

**Q.** And the “Compound Qx Present in Plasma at 0.5 hr After i.v. dose” value [3, 7]?
**A.** Its value is 13 ng/mL.

Reference: patent US20260265280A1, “Prevention/Treatment of Ischemic Reperfusion Injury” (Rev Therapeutics, priority 2023, published 2026)
